The results in this text go back to patent publication US11884676B2, “Substituted pyrimido[1,2-b]pyridazines as positive allosteric modulators of the muscarinic acetylcholine receptor M4” (Vanderbilt University, priority 2020, dated 2024).

Usually Emax stands for the greatest response seen or fitted, relative to the assay's reference. The EC50 is the concentration needed to bring the measured effect to its halfway point.

In this assay the target is T1, Human M4 (Homo sapiens, UniProt P08173).
T1 construct: expressed in transfected cells
T1 sequence (P08173 1-479): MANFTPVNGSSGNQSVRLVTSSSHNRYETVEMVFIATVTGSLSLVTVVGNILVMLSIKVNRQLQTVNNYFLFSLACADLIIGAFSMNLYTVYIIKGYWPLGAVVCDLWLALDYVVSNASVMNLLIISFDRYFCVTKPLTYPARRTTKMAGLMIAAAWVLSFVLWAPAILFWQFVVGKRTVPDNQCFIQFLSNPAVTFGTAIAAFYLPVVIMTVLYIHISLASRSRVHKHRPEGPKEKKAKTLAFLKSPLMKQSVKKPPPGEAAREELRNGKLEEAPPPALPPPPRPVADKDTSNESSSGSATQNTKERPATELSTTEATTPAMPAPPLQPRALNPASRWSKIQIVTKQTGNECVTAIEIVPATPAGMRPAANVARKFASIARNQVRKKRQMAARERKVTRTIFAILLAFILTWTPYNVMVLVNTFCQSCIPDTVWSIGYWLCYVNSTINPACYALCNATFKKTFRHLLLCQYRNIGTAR
Put plainly: mAChR M4 cell-based functional assay (calcium flux, PAM mode). As to conditions: hM4-Gqi5 CHO-K1 cells; for Emax at 30 µM: CHO-K1, % ACh maximum at 30 μM; for EC50: concentration-dependent increase in the EC20 acetylcholine response. Here is the method: Human and rat M4 cDNAs, along with the chimeric G protein Gqi5, were transfected into Chinese hamster ovary (CHO-K1) cells purchased from the American Type Culture Collection using Lipofectamine2000. hM4-Gqi5 cells were grown in Ham's F-12 medium containing 10% heat-inactivated fetal bovine serum (FBS), 20 mM HEPES, 50 μg/mL G418 sulfate, and 500 μg/mL Hygromycin B. rM4-Gqi5 cells were grown in DMEM containing 10% heat-inactivated FBS, 20 mM HEPES, 400 μg/mL G418 sulfate, and 500 μg/mL Hygromycin B.
For high throughput measurement of agonist-evoked increases in intracellular calcium, CHO-K1 cells stably expressing muscarinic receptors were plated in growth medium lacking G418 and hygromycin at 15,000 cells/20 μL/well in Greiner 384-well black-walled, tissue culture (TC)-treated, clear-bottom plates (VWR). Cells were incubated overnight at 37° C. and 5% CO2. The next day, cells were washed using an ELX 405 (BioTek) with assay buffer; the final volume was then aspirated to 20 μL. Next, 20 μL of a 2.3 μM stock of Fluo-4/acetoxymethyl ester (Invitrogen, Carlsbad, CA), prepared as a 2.3 mM stock in DMSO and mixed in a 1:1 ratio with 10% (w/v) Pluronic F-127 and diluted in assay buffer, was added to the wells and the cell plates were incubated for 50 min at 37° C. and 5% CO2. Dye was removed by washing with the ELX 405 and the final volume was aspirated to 20 μL. Compound master plates were formatted in an 11 point concentration-response curve (CRC) format (1:3 dilutions) in 100% DMSO with a starting concentration of 10 mM using a BRAVO liquid handler (Agilent). Test compound CRCs were then transferred to daughter plates (240 nL) using the Echo acoustic plate reformatter (Labcyte, Sunnyvale, CA) and then diluted into assay buffer (40 μL) to a 2× stock using a Thermo Fisher Combi (Thermo Fisher Scientific, Waltham, MA).
Calcium flux was measured using the Functional Drug Screening System (FDSS) 6000 or 7000 (Hamamatsu Corporation, Tokyo, Japan) as an increase in the fluorescent static ratio. Compounds were applied to cells (20 μL, 2×) using the automated system of the FDSS at 2-4 seconds into the protocol and the data were collected at 1 Hz. At 144 seconds, 10 μL of an EC20 concentration of the muscarinic receptor agonist acetylcholine was added (5×), followed by the addition of 12 μL of an EC80 concentration of acetylcholine at the 230 second time point (5×). Agonist activity was analyzed as a concentration-dependent increase in calcium mobilization upon compound addition. Positive allosteric modulator activity was analyzed as a concentration-dependent increase in the EC20 acetylcholine response. Antagonist activity was analyzed as a concentration-dependent decrease in the EC80 acetylcholine response. Concentration-response curves were generated using a four-parameter logistical equation in XLFit curve fitting software (IDBS, Bridgewater, NJ) for Excel (Microsoft, Redmond, WA) or Prism (GraphPad Software, Inc., San Diego, CA).
Compounds were synthesized as described above. Activity (EC50 and Emax) was determined in the mAChR M4 cell-based functional assay as described above and the data are shown in Table 2. The compound number corresponds to the compound numbers used in Examples 1 to 11 and Tables 1.
For orientation: Calcium assays in cells follow changes in intracellular calcium, usually with a dye or a luminescent sensor.

Structures are written as SMILES.

As to `[2H]C1(Oc2ccc3c(c2)OC([2H])([2H])C([2H])([2H])O3)CCN(c2nn3c(=O)ccnc3c(C3CC3)c2C)CC1` [Compound 97, 9-cyclopropyl-7-(4-((2,3-dihydrobenzo[b][1,4]dioxin-6-yl-2,2,3,3-d4)oxy)piperidin-1-yl-4-d)-8-methyl-4H-pyrimido[1,2-b]pyridazin-4-one], the Emax at 30 µM is 78% and the concentration giving a half-maximal response (EC50) is 424 nM.
As for `Cc1c(N2CC[C@H](Oc3ccc4c(c3)OCCO4)C[C@H]2C)nn2c(=O)ccnc2c1C` [Compound 134, 7-((2R,4S)-4-((2,3-dihydrobenzo[b][1,4]dioxin-6-yl)oxy)-2-methylpiperidin-1-yl)-8,9-dimethyl-4H-pyrimido[1,2-b]pyridazin-4-one], the maximal response (Emax) at 30 µM worked out at 105% and the EC50 is 25 nM.
For `Cc1ccc(OC2CCN(c3nn4c(=O)cc(C)nc4cc3C)CC2)cn1` [Compound 52, 2,8-dimethyl-7-(4-((6-methylpyridin-3-yl)oxy)piperidin-1-yl)-4H-pyrimido[1,2-b]pyridazin-4-one] the same measures were 84% and 168 nM.
On to `[2H]C1([2H])Oc2ccc(OC3CCN(c4nn5c(=O)cc(C(F)(F)F)nc5c(C)c4C)CC3)cc2OC1([2H])[2H]` [Compound 7, 7-(4-((2,3-Dihydrobenzo[b][1,4]dioxin-6-yl-2,2,3,3-d4)oxy)piperidin-1-yl)-8,9-dimethyl-2-(trifluoromethyl)-4H-pyrimido[1,2-b]pyridazin-4-one], for which the Emax at 30 µM turned out to be 93% and the EC50 came out at 70 nM.
As for `Cc1cc(=O)n2nc(N3CC[C@H](Oc4ccc5c(c4)OCCO5)[C@H](F)C3)c(C)cc2n1` [Compound 44, 7-((3R,4S)-4-((2,3-dihydrobenzo[b][1,4]dioxin-6-yl)oxy)-3-fluoropiperidin-1-yl)-2,8-dimethyl-4H-pyrimido[1,2-b]pyridazin-4-one], the maximal effect (Emax) at 30 µM came out at 79% and the EC50 was 224 nM.
`Cc1cc2nccc(=O)n2nc1N1CC[C@H](Oc2ccc3c(c2)OCCO3)[C@@H](C)C1` (single isomer, unassigned) [Compound 115, 7-((3S,4S) or (3R, 4R))-4-((2,3-dihydrobenzo[b][1,4]dioxin-6-yl)oxy)-3-methylpiperidin-1-yl)-8-methyl-4H-pyrimido[1,2-b]pyridazin-4-one]: the Emax at 30 µM was 78% and the 50% effective concentration (EC50) was 1560 nM.
As to `[2H]C1([2H])Oc2ccc(OC3CCN(c4nn5c(=O)ccnc5c(C)c4C4CC4)CC3)cc2OC1([2H])[2H]` [Compound 21, 8-cyclopropyl-7-(4-((2,3-dihydrobenzo[b][1,4]dioxin-6-yl-2,2,3,3-d4)oxy)piperidin-1-yl)-9-methyl-4H-pyrimido[1,2-b]pyridazin-4-one], the EC50 is 2070 nM. For the same molecule, under “% ACh maximum at 30 μM”, the “Human M4 Emax (%)*” value is reported as 82%.
For `[2H]C1(Oc2ccc3c(c2)OC([2H])([2H])C([2H])([2H])O3)CCN(c2nn3c(=O)cc(C)nc3c(C)c2C)CC1` [Compound 94, 7-(4-((2,3-dihydrobenzo[b][1,4]dioxin-6-yl-2,2,3,3-d4)oxy)piperidin-1-yl-4-d)-2,8,9-trimethyl-4H-pyrimido[1,2-b]pyridazin-4-one], the maximum response (Emax) at 30 µM stood at 84% and the EC50 was determined as 30 nM.
The corresponding values for `[2H]C1([2H])Oc2ccc(OC3CCN(c4nn5c(=O)c(N6CCC6)cnc5cc4C)CC3)cc2OC1([2H])[2H]` [Compound 35, 3-(azetidin-1-yl)-7-(4-((2,3-dihydrobenzo[b][1,4]dioxin-6-yl-2,2,3,3-d4)oxy)piperidin-1-yl)-8-methyl-4H-pyrimido[1,2-b]pyridazin-4-one] are 114% and 153 nM.
As for `Cc1cc(=O)n2nc(N3CC[C@@H](Oc4ccc5c(c4)OCCO5)[C@@H](F)C3)c(C)cc2n1` [Compound 33, 7-((3S,4R)-4-((2,3-dihydrobenzo[b][1,4]dioxin-6-yl)oxy)-3-fluoropiperidin-1-yl)-2,8-dimethyl-4H-pyrimido[1,2-b]pyridazin-4-one], the Emax at 30 µM amounted to 117% and the EC50 came out at 40 nM.
With `[2H]C1([2H])Oc2ccc(OC3CCN(c4nn5c(=O)cc(C)nc5cc4C)CC3)cc2OC1([2H])[2H]` [Compound 3, 7-(4-((2,3-Dihydrobenzo[b][1,4]dioxin-6-yl-2,2,3,3-d4)oxy)piperidin-1-yl)-2,8-dimethyl-4H-pyrimido[1,2-b]pyridazin-4-one], the maximal effect (Emax) at 30 µM stood at 86% and the EC50 worked out at 30 nM.
Take `Cc1cc2nccc(=O)n2nc1N1CC[C@@H](Oc2ccc3c(c2)OCCO3)[C@@H](C)C1` (single isomer, unassigned) [Compound 113, 7-((3R,4S) or (3S,4R))-4-(2,3-dihydrobenzo[b][1,4]dioxin-6-yl)oxy)-3-methylpiperidin-1-yl)-8-methyl-4H-pyrimido[1,2-b]pyridazin-4-one]: the Emax at 30 µM turned out to be 96% and the EC50 came out at 110 nM.
The corresponding values for `COc1ncc(OC2CCN(c3nn4c(=O)ccnc4cc3C)CC2)cc1C` [Compound 75, 7-(4-((6-methoxy-5-methylpyridin-3-yl)oxy)piperidin-1-yl)-8-methyl-4H-pyrimido[1,2-b]pyridazin-4-one] are 84% and 1510 nM.
Take `Cc1c(N2CCC(Oc3ccc4c(c3)OCCO4)CC2)nn2c(=O)ccnc2c1C1CC1` [Compound 20, 9-Cyclopropyl-7-(4-((2,3-dihydrobenzo[b][1,4]dioxin-6-yl-2,2,3,3-d4)oxy)piperidin-1-yl)-8-methyl-4H-pyrimido[1,2-b]pyridazin-4-one]: the maximal effect (Emax) at 30 µM was determined as 81% and the EC50 was 172 nM.
As for `Cc1c(N2CCC(Oc3ccc(Cl)cc3)CC2)nn2c(=O)cc(C(F)F)nc2c1C` [Compound 79, 7-(4-(4-chlorophenoxy)piperidin-1-yl)-2-(difluoromethyl)-8,9-dimethyl-4H-pyrimido[1,2-b]pyridazin-4-one], the Emax at 30 µM turned out to be 76% and the EC50 was found to be 358 nM.
Regarding `[2H]C1(Oc2ccc(C)cc2)CCN(c2nn3c(=O)ccnc3cc2C)CC1` [Compound 92, 8-methyl-7-(4-(p-tolyloxy)piperidin-1-yl-4-d)-4H-pyrimido[1,2-b]pyridazin-4-one], the maximum response (Emax) at 30 µM came out at 89% and the concentration giving a half-maximal response (EC50) is 632 nM.
In the case of `[2H]C1(Oc2ccc3c(c2)OC([2H])([2H])C([2H])([2H])O3)CCN(c2nn3c(=O)cc(COC)nc3cc2C)CC1` [Compound 109, 7-(4-((2,3-dihydrobenzo[b][1,4]dioxin-6-yl-2,2,3,3-d4)oxy)piperidin-1-yl-4-d)-2-(methoxymethyl)-8-methyl-4H-pyrimido[1,2-b]pyridazin-4-one], the Emax at 30 µM was determined as 97% and the EC50 was 19 nM.
In the case of `[2H]C1(Oc2ccc3c(c2)OC([2H])([2H])C([2H])([2H])O3)CCN(c2nn3c(=O)cc(CC)nc3c(C)c2C)CC1` [Compound 98, 7-(4-((2,3-dihydrobenzo[b][1,4]dioxin-6-yl-2,2,3,3-d4)oxy)piperidin-1-yl-4-d)-2-ethyl-8,9-dimethyl-4H-pyrimido[1,2-b]pyridazin-4-one], the maximal effect (Emax) at 30 µM is 90% and the EC50 turned out to be 64 nM.
